According to patent US7727275B2, “Drug-delivery endovascular stent and method of forming the same” (Biosensors International Group, Ltd., priority 2002, dated 2010):

Test system: restenosis (neointimal formation) in severely injured coronary vessels
Experiment: Swine restenosis model, "high injury" experiment: QCA and morphometric analysis 28 days after stent implant
Format: in vivo, out-bred juvenile swine
Source text: The studies are summarized in Example 4.
Briefly, the studies compare the extent of restenosis at 28 days following stent implantation, in bare metal stents, polymer-coated stents, and polymer coated stents containing high or low concentrations of sirolimus (rapamycin) and everolimus.
It was reasoned that the most challenging treatment condition for the drug eluting stent is a severely injured vessel, as it is known that the degree of restenosis (neointimal formation) increases directly with extent of vessel injury. […]
Drug-eluting stents using a metal wire-mesh scaffold of a corrugated ring design (i.e. S-Stent) and polymer coating were implanted in out-bred juvenile swine (alternately Yucatan Minipigs for implant studies lasting longer than 28 days), using different dosings of either the drug everolimus or the drug sirolimus. At time of implant, Quantitative Coronary Angiography (QCA) was performed to measure the diameter of the vessels both before and after stent implantation. […]
A computerized imaging system Image Pro Plus 4.0 through an A.G. Heinze slide microscope for a PC-based system was used for histomorphometric measurements of: • 1. […] To quantify the degree of vascular injury, a score based on the amount and length of tear of the different wall structures was used. […]

Which “extent of restenosis / neointima formation (in words)” value does the source give for `CO[C@H]1C[C@@H]2CC[C@@H](C)[C@@](O)(O2)C(=O)C(=O)N2CCCC[C@H]2C(=O)O[C@H]([C@H](C)C[C@@H]2CC[C@@H](OCCO)[C@H](OC)C2)CC(=O)[C@H](C)/C=C(\C)[C@@H](O)[C@@H](OC)C(=O)[C@H](C)C[C@H](C)/C=C/C=C/C=C/1C` [everolimus, 40-0-(2-hydroxyl)ethyl-rapamycin] here?
Its value is “better than, or at least equivalent to the 180 microgram dosage of sirolimus”.
